# Measured values as given in ChEMBL document CHEMBL1154382, “Preliminary SAR analysis of novel antiproliferative N(6),5'-bis-ureidoadenosine derivatives” (2009).
# Legend:
# Assay type in all cases: functional
# HT-29 = assay: Antiproliferative activity against human HT-29 cells
# ACHN = assay: Antiproliferative activity against human ACHN cells
# SF-295 = assay: Antiproliferative activity against human SF295 cells
# OVCAR-3 = assay: Antiproliferative activity against human OVCAR-3 cells
# DU-145 = assay: Antiproliferative activity against human DU145 cells
# M14 = assay: Antiproliferative activity against human M14 cells
# MDA-MB-231 = assay: Antiproliferative activity against human MDA-MB-231 cells
# K562 = assay: Antiproliferative activity against human K562 cells
# UACC-257 = assay: Antiproliferative activity against human UACC257 cells
# SR = assay: Antiproliferative activity against human SR cells
# MDA-MB-435 = assay: Antiproliferative activity against human MDA-MB-435 cells
# CAKI-1 = assay: Antiproliferative activity against human Caki1 cells
# SN12C = assay: Antiproliferative activity against human SN12C cells
# SK-MEL-2 = assay: Antiproliferative activity against human SK-MEL-2 cells
# CCRF-CEM = assay: Antiproliferative activity against human CCRF-CEM cells
# SW-620 = assay: Antiproliferative activity against human SW620 cells
# MOLT-4 = assay: Antiproliferative activity against human MOLT4 cells
# A549 = assay: Antiproliferative activity against human A549 cells
# U-251 = assay: Antiproliferative activity against human U251 cells
# UO-31 = assay: Antiproliferative activity against human UO31 cells
# [1] = Antiproliferative activity against human Hs 578T cells
# NCI-H226 = assay: Antiproliferative activity against human NCI-H226 cells
# SK-MEL-28 = assay: Antiproliferative activity against human SK-MEL-28 cells
# OVCAR-4 = assay: Antiproliferative activity against human OVCAR4 cells
# 786-0 = assay: Antiproliferative activity against human 786-0 cells
# OVCAR-5 = assay: Antiproliferative activity against human OVCAR5 cells
# HL-60(TB) = assay: Antiproliferative activity against human HL-60(TB) cells
# SF-539 = assay: Antiproliferative activity against human SF539 cells
# IGROV-1 = assay: Antiproliferative activity against human IGROV1 cells
# OVCAR-8 = assay: Antiproliferative activity against human OVCAR8 cells
# TK-10 = assay: Antiproliferative activity against human TK10 cells
# SF-268 = assay: Antiproliferative activity against human SF268 cells
# HOP-62 = assay: Antiproliferative activity against human HOP62 cells
# RXF 393 = assay: Antiproliferative activity against human RXF393 cells
# HCC 2998 = assay: Antiproliferative activity against human HCC2998 cells
# [2] = Antiproliferative activity against human […] cells
# SK-OV-3 = assay: Antiproliferative activity against human SKOV3 cells
# LOX IMVI = assay: Antiproliferative activity against human LOXIMVI cells
# A498 = assay: Antiproliferative activity against human A498 cells
# Malme-3M = assay: Antiproliferative activity against human MALME-3M cells
# SNB-75 = assay: Antiproliferative activity against human SNB75 cells
# NCI-H460 = assay: Antiproliferative activity against human NCI-H460 cells
# COLO 205 = assay: Antiproliferative activity against human COLO205 cells
# NCI-H322M = assay: Antiproliferative activity against human NCI-H322M cells
# NCI-H522 = assay: Antiproliferative activity against human NCI-H522 cells
# HCT-15 = assay: Antiproliferative activity against human HCT15 cells
# EKVX = assay: Antiproliferative activity against human EKVX cells
# HCT-116 = assay: Antiproliferative activity against human HCT116 cells
# NCI-H23 = assay: Antiproliferative activity against human NCI-H23 cells
# SK-MEL-5 = assay: Antiproliferative activity against human SK-MEL-5 cells
# T47D = assay: Antiproliferative activity against human T47D cells
# UACC-62 = assay: Antiproliferative activity against human UACC62 cells
# MCF7 = assay: Antiproliferative activity against human MCF7 cells
# BT-549 = assay: Antiproliferative activity against human BT549 cells
# SNB-19 = assay: Antiproliferative activity against human SNB19 cells
# HOP-92 = assay: Antiproliferative activity against human HOP92 cells
# PC-3 = assay: Antiproliferative activity against human PC3 cells
# KM12 = assay: Antiproliferative activity against human KM12 cells
smiles,measurement,setting,value
CCOC(=O)C[C@H]1[C@@H](O[Si](C)(C)C(C)(C)C)[C@H](n2cnc3c(NC(=O)Nc4ccccc4)ncnc32)O[C@@H]1CNC(=O)NC,GI50,HT-29,4.2 µM
same,GI50,ACHN,8.55 µM
same,GI50,SF-295,5.73 µM
same,GI50,OVCAR-3,4.59 µM
same,GI50,DU-145,4.97 µM
same,GI50,M14,2.51 µM
same,GI50,MDA-MB-231,3.96 µM
same,GI50,K562,3.59 µM
same,GI50,UACC-257,5.68 µM
same,GI50,SR,2.23 µM
same,GI50,MDA-MB-435,6.21 µM
same,GI50,CAKI-1,29.7 µM
same,GI50,SN12C,9.1 µM
same,GI50,SK-MEL-2,5.42 µM
same,GI50,CCRF-CEM,6.69 µM
same,GI50,SW-620,4.8 µM
same,GI50,MOLT-4,2.39 µM
same,GI50,A549,4.18 µM
same,GI50,U-251,4.69 µM
same,GI50,UO-31,12.1 µM
same,GI50,[1],3.6 µM
same,GI50,NCI-H226,> 100 µM
same,GI50,SK-MEL-28,6.85 µM
same,GI50,OVCAR-4,12.3 µM
same,GI50,786-0,2 µM
same,GI50,OVCAR-5,31.1 µM
same,GI50,HL-60(TB),0.00301 µM
same,GI50,SF-539,5.19 µM
same,GI50,IGROV-1,3.85 µM
same,GI50,OVCAR-8,4.92 µM
same,GI50,TK-10,12.4 µM
same,GI50,SF-268,6.53 µM
same,GI50,HOP-62,8.96 µM
same,GI50,RXF 393,2.01 µM
same,GI50,HCC 2998,> 100 µM
same,GI50,[2],1.09 µM
same,GI50,SK-OV-3,21 µM
same,GI50,LOX IMVI,5.46 µM
same,GI50,A498,3.34 µM
same,GI50,Malme-3M,10.3 µM
same,GI50,SNB-75,4.56 µM
same,GI50,NCI-H460,5.54 µM
same,GI50,COLO 205,3.84 µM
same,GI50,NCI-H322M,> 100 µM
same,GI50,NCI-H522,4.36 µM
same,GI50,HCT-15,8.5 µM
same,GI50,EKVX,17.7 µM
same,GI50,HCT-116,3.2 µM
same,GI50,NCI-H23,33.3 µM
same,GI50,SK-MEL-5,4.34 µM
same,GI50,T47D,2.55 µM
same,GI50,UACC-62,> 100 µM
same,GI50,MCF7,3.42 µM
same,GI50,BT-549,> 100 µM
same,GI50,SNB-19,29 µM
same,GI50,HOP-92,< 0.01 µM
same,GI50,PC-3,2.25 µM
same,GI50,KM12,3.95 µM
CNC(=O)NC[C@H]1O[C@@H](n2cnc3c(NC(=O)Nc4ccccc4)ncnc32)[C@H](O[Si](C)(C)C(C)(C)C)[C@@H]1CC(=O)N(C)OC,GI50,HT-29,5.37 µM
same,GI50,ACHN,14.4 µM
same,GI50,SF-295,9.09 µM
same,GI50,OVCAR-3,7.11 µM
same,GI50,DU-145,16.6 µM
same,GI50,M14,15.2 µM
same,GI50,MDA-MB-231,12.3 µM
same,GI50,K562,3.12 µM
same,GI50,UACC-257,22.6 µM
same,GI50,SR,1.27 µM
same,GI50,MDA-MB-435,10.9 µM
same,GI50,CAKI-1,53.8 µM
same,GI50,SN12C,85.3 µM
same,GI50,SK-MEL-2,14.9 µM
same,GI50,CCRF-CEM,6.37 µM
same,GI50,SW-620,> 100 µM
same,GI50,MOLT-4,2.23 µM
same,GI50,A549,9.35 µM
same,GI50,U-251,5.66 µM
same,GI50,UO-31,7.79 µM
same,GI50,[1],5.79 µM
same,GI50,NCI-H226,41.9 µM
same,GI50,SK-MEL-28,7.77 µM
same,GI50,OVCAR-4,53 µM
same,GI50,786-0,9.01 µM
same,GI50,OVCAR-5,38.2 µM
same,GI50,HL-60(TB),0.00181 µM
same,GI50,SF-539,22.3 µM
same,GI50,IGROV-1,3.72 µM
same,GI50,OVCAR-8,9.02 µM
same,GI50,TK-10,20.5 µM
same,GI50,SF-268,8.29 µM
same,GI50,HOP-62,24.9 µM
same,GI50,RXF 393,9.74 µM
same,GI50,HCC 2998,30.6 µM
same,GI50,[2],1.58 µM
same,GI50,SK-OV-3,52.7 µM
same,GI50,LOX IMVI,7.3 µM
same,GI50,A498,3.87 µM
same,GI50,Malme-3M,11.4 µM
same,GI50,SNB-75,12.7 µM
same,GI50,NCI-H460,7.49 µM
same,GI50,COLO 205,12.3 µM
same,GI50,NCI-H322M,> 100 µM
same,GI50,NCI-H522,11.1 µM
same,GI50,HCT-15,6.47 µM
same,GI50,EKVX,26.4 µM
same,GI50,HCT-116,4.2 µM
same,GI50,NCI-H23,57.2 µM
same,GI50,SK-MEL-5,5.81 µM
same,GI50,T47D,13.9 µM
same,GI50,UACC-62,41.9 µM
same,GI50,MCF7,5.59 µM
same,GI50,BT-549,29 µM
same,GI50,SNB-19,> 100 µM
same,GI50,HOP-92,2.71 µM
same,GI50,KM12,23.9 µM
